Values quoted from earlier work as cited in patent US8748087B2, “Sequence of reverse transcriptase gene and method of use” (Fudan University, priority 2005, dated 2014).

Tested on: HBV
Conditions: patients with chronic hepatitis B

For interferon alpha, the overall response rates is given as “less than 30%”.
